Assay results as given in patent US20030171382A1, “Pharmaceutical composition for regeneration of cirrhotic liver” (priority 2002, published 2003).
Like-named read-outs stand apart in the source and are kept apart here. Marks after values point to notes of the source that are not given here.

Assays:
rats with cirrhosis [1] = settings: 3 times a week for 4 weeks; for Fibrosis Scores / Knodell Scores: group with cirrhosis; for Fibrosis Scores: scale 0-4, untreated 3.8 ± 0.2; for Knodell Scores: untreated 14.0 ± 0.8
Excerpt: (§1) Sprague-Dawley rats that were 6 weeks old and 140-160 g were used in the examples below.
(§2) By continually administering rats with dimethylnitrosamine (DMN) 3 times a week for 4 weeks, test models of cirrhotic livers were achieved. At such time, the rats showing only indications of liver fibrosis were placed in a separate group from rats showing indications of cirrhosis, and the survival rates of rats with cirrhosis and rats with liver fibrosis were studied during the next 4 weeks.
The histopathological effect of oltipraz on cirrhosis was studied.
(§3) The curative effect of oltipraz on liver cirrhosis was histopathologically determined through fibrosis scores taken after Masson's trichrome staining and through Knodell scores which show the portal inflammation and the extent of fibrosis of the liver (FIG. 2, Table 1).
(§4) Each value is represented by the average ± standard deviation. The number of animals used was 5 to 10. The significance of each group is determined by the paired Student's t-test. The significance is indicated by * p<0.05, ** p<0.01 compared to rats with cirrhosis or liver fibrosis. […] Degree of fibrosis 0=Normal, 1=Presence of weak fibrous tissue, 2=Presence of moderate fibrous tissue, 3=Presence of obvious fibrous tissue, 4=Evidence of severe fibrosis. Sum of values from periportal bridging (Greatest=10), intralobular cell loss (Greatest=4), portal inflammation (Greatest=4), and fibrosis (Greatest=4) yields the Knodell score.

rats with cirrhosis [2] = settings: cirrhotic rats, 30 mg/kg, 3 times a week for 4 weeks; without oltipraz 48% after 4 weeks
Excerpt: as §1, §2

rats with liver fibrosis [3] = settings: 30 mg/kg 3 times a week
Excerpt: as §1, §2

C/EBP = settings: hepatocytes isolated from cirrhotic rats incubated with oltipraz
PCNA [4] = settings: cirrhotic rats, 30 mg/kg, 3 times a week for 4 weeks; compared to cirrhotic rat without oltipraz
Method: PCNA immunochemical analysis is done with a specific antibody for PCNA (Santa Cruz Biotech). Analysis was carried out by indirect Avidin-Biotin-Alkaline-Phosphatase technique, according to the protocol provided by the manufacturer (InnoGenex). […] By using blocking serum, nonspecific antibody bindings were prevented. Then, in a humidified chamber, the slices were incubated with antibodies for 30 minutes at room temperature. After the incubation, Phosphate Buffered Saline (PBS) with 0.1% Tween-20 was used to rinse the slides. The slices were subjected to biotinylated 2nd antibodies and reacted for 5 minutes at 37° C. followed by additional reaction for 5 minutes at 37° C. with streptavidin-conjugated alkaline phosphatase added. Then, 5-bromo-4-chloro-3-indolyl-phosphate (BCIP) and nitro-blue-tetrazolium (NBT) were used as the phosphatase substrate to be incubated with the slices on the slide until proper colors became visible. Afterwards, the slices were again stained with nuclear fast red.

PCNA [5] = settings: cirrhotic rats, 30 mg/kg, 3 times a week for 4 weeks; versus control or untreated cirrhotic rats
Method: Nuclear fractions of the liver from the control rats, cirrhotic rats and oltipraz administered (30 mg/kg, 3 times a week for 4 weeks) cirrhotic rats were dissolved in a diluting solution containing sodium dodecyl sulfate (SDS) to form a sample and stored at −70° C. After SDS-polyacrylamide gel electrophoresis, immunoblot analysis was carried out. The sample was fractionated by using 12% gel electrophoresis and electrically transferred to nitrocellulose membrane. The nitrocellulose membrane was incubated with polyclonal mouse anti-PCNA antibody (1:1000) (Santa Cruz Biotech) and then incubated again with horseradish peroxidase-conjugated secondary antibody. Lastly, ECL chemiluminescence kit manufactured by Amersham company was used to develop the band.

C/EBP-β and C/EBP-α [6] = settings: primary cultured hepatocytes, 30 μM
rats with liver fibrosis [7] = settings: group with fibrosis; for Fibrosis Scores: scale 0-4, untreated 2.2 ± 0.5; for Knodell Scores: untreated 6.0 ± 1.2
Excerpt: as §1, §2, §3, §4

C/EBP-β and C/EBP-α [8] = settings: cirrhotic rats, 30 mg/kg, 3 times a week for 4 weeks
Method: With the importance of C/EBP in the regulation of liver regeneration in mind, the expression of C/EBP-β and C/EBP-α in oltipraz administered (30 mg/kg, 3 times a week for 4 weeks) cirrhotic rats were examined.

c-Met = settings: cirrhotic rats, 30 mg/kg, 3 times a week for 4 weeks; versus un-administered rats
Excerpt: c-Met is a Hepatocyte Growth Factor (HGF) receptor, applicable in proliferation and differentiation of the liver cells. […] When c-Met is not appropriately present, even with the presence of HGF, liver tissues will not form.

cirrhotic rats [9] = settings: index 0-3, untreated 1.7
Excerpt: as §1
Another representative clinical symptom of cirrhosis is the accumulation of ascites. […] The significance is indicated by ** p<0.01, compared to control and # p<0.05 compared to rats with cirrhosis.

Thy1.1 and Flt-3 = settings: cirrhotic rats, 30 mg/kg, 3 times a week for 4 weeks; compared to untreated cirrhotic rats
Excerpt: The cells, which regenerate to liver tissues, are known to originate from stem cells.

cirrhotic rats [10] = settings: 3 times a week for 4 weeks, untreated approximately 56% of normal
Excerpt: as §1
Cirrhosis is not only responsible for diminishing of a liver's function, but also for atrophy of the liver tissues. […] Since weight loss accompanies cirrhosis, in order to standardize the test results, the weight of the brain, which is normally not affected by cirrhosis, was used as the comparative weight to obtain the changes in the weights. The significance is indicated by ** p<0.01, compared to control and # p<0.05 compared to rats with cirrhosis.

cirrhotic rats [11] = settings: 30 mg/kg, 3 times a week for 4 weeks
Excerpt: as §1
Ascites are formed when the synthesis of the blood plasma protein (especially albumin) is reduced in the liver tissues, bringing a disturbance in maintaining the equilibrium of the osmotic pressure in the blood. […] The significance is indicated by ** p<0.01, compared to control and # p<0.05 compared to rats with cirrhosis.

rats with cirrhosis [12] = settings: for ALT in blood plasma / AST in blood plasma / Bilirubin in blood plasma / Cholesterol in blood plasma: group with cirrhosis; for ALT in blood plasma: untreated 138 ± 14, control 55 ± 4; for AST in blood plasma: untreated 275 ± 36, control 141 ± 18; for Bilirubin in blood plasma: untreated 2.7 ± 0.8, control 1.1 ± 0.1; for Cholesterol in blood plasma: untreated 152 ± 30, control 97 ± 6
Method: as §1
When the rats were administered with 15 mg/kg of oltipraz, 3 times a week for 4 weeks, the ALT and AST activity in the blood plasma was reduced, and when administered with 30 mg/kg, approximately 70% of the AST value lowered, showing a statistical significance (Table 2).
The amount of bilirubin in blood plasma is an indicator of the liver's capacity.
Each value is represented by the average ± standard deviation. The number of animals used was 8 to 11. The significance of each group is determined by the paired Student's t-test. The significance is indicated by * p<0.05, compared to control and # p<0.05 compared to rats with cirrhosis.

C/EBP-β = settings: rat hepatocytes, 30 μM for 6 hours
Method: Afterwards, to study whether oltipraz promotes translocation of C/EBP-β to the nucleus, rat hepatocytes were incubated with oltipraz at the concentration of 30 μM for 6 hours.

cirrhotic rats [13] = settings: 30 mg/kg, 3 times a week for 4 weeks; remark: listed apart in the source
Excerpt: as §1
The left side of FIG. 4b is a photograph of liver tissue, obtained after administration of oltipraz to cirrhotic rats, taken following Masson's trichrome staining.

[14] = 15 mg/kg, 3 times a week for 4 weeks, 15 mg/kg
[15] = 15 mg/kg, 3 times a week for 4 weeks, listed as oltipraz, 15 mg/kg

Cc1c(-c2cnccn2)ssc1=S [Oltipraz, 5-(2-pyrazinyl)-4-methyl-1,2-dithiol-3-thione]
accumulation of fibers in liver tissue (rats with cirrhosis [1]; cirrhotic rats, 15 or 30 mg/kg): reduced in a dose-dependent manner
Fibrosis Scores (rats with cirrhosis [1]; 15 mg/kg): 2.9 ± 0.4
Knodell Scores (rats with cirrhosis [1]; 15 mg/kg): 8.7 ± 1.1**
Fibrosis Scores (rats with cirrhosis [1]; 30 mg/kg): 2.8 ± 1.1*
Knodell Scores (rats with cirrhosis [1]; 30 mg/kg): 6.8 ± 2.5**
survival rate (rats with cirrhosis [2]): 83%
death of rats (rats with liver fibrosis [3]): no death
amount of C/EBP in the nucleus (C/EBP): no significant change was observed
occurrence of PCNA (cells with PCNA) (PCNA [4]): approximately twice more frequent
expression of PCNA (36 kDa band intensity) (PCNA [5]): significant increase in the expression of PCNA
amount of C/EBP-α in the nucleus of the liver cells (C/EBP-β and C/EBP-α [6]): gradually increased
amount of C/EBP-β in the nucleus of the liver cells (C/EBP-β and C/EBP-α [6]): gradually increased
Fibrosis Scores (rats with liver fibrosis [7]; 15 mg/kg): 2.8 ± 0.4
Knodell Scores (rats with liver fibrosis [7]; 15 mg/kg): 7.0 ± 1.2
Fibrosis Scores (rats with liver fibrosis [7]; 30 mg/kg): 1.0 ± 0.0**
Knodell Scores (rats with liver fibrosis [7]; 30 mg/kg): 2.6 ± 0.4*
appearance of liver-enriched inhibitory protein (LIP) (C/EBP-β and C/EBP-α [8]): almost completely disappeared
expression of C/EBP-α (C/EBP-β and C/EBP-α [8]): noticeably recovered
expression of C/EBP-β (C/EBP-β and C/EBP-α [8]): increased
expression of c-Met (c-Met): noticeably greater
ascites formation index (cirrhotic rats [9]; 15 mg/kg): 0.9
ascites formation index (cirrhotic rats [9]; 30 mg/kg): 0.4
number of cells containing Thy1.1 and Flt-3 (Thy1.1 and Flt-3): considerable decline
liver weights (cirrhotic rats [10]; 15 mg/kg): recovered almost to the normal weights
liver weights (cirrhotic rats [10]; 30 mg/kg): recovered almost to the normal weights
amount of albumin in the blood plasma (cirrhotic rats [11]): normal albumin content was recovered
total cholesterol level in blood plasma (rats with cirrhosis [12]; cirrhotic rats treated with oltipraz (dose not given)): did not show noticeable change
AST value lowered (rats with cirrhosis [12]; cirrhotic rats, 30 mg/kg): approximately 70%
amount of bilirubin in blood plasma (rats with cirrhosis [12]; cirrhotic rats, oltipraz administration (dose not given)): tended to be reduced
ALT in blood plasma (rats with cirrhosis [12]; [14]): 124 ± 47
ALT in blood plasma (rats with cirrhosis [12]; [15]): reduced
AST in blood plasma (rats with cirrhosis [12]; [14]): 206 ± 24
AST in blood plasma (rats with cirrhosis [12]; [15]): reduced
Bilirubin in blood plasma (rats with cirrhosis [12]; 15 mg/kg): 1.8 ± 0.4
Cholesterol in blood plasma (rats with cirrhosis [12]; 15 mg/kg): 116 ± 9
Bilirubin in blood plasma (rats with cirrhosis [12]; 30 mg/kg): 1.4 ± 0.2
ALT in blood plasma (rats with cirrhosis [12]; 30 mg/kg): 110 ± 39
Cholesterol in blood plasma (rats with cirrhosis [12]; 30 mg/kg): 104 ± 7
AST in blood plasma (rats with cirrhosis [12]; 30 mg/kg): 185 ± 22^#
translocation of C/EBP-β to the nucleus (C/EBP-β): clearly promoted translocation
division of the liver cells (cirrhotic rats [13]): clearly shows the dividing cells
